Source: PubChem BioAssay (NCI)
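Grown in 96-well plates, cells were treated for 48 hours with each compound at five concentrations. Insufficient inhibition: endpoint recorded as highest concentration tested. GI50 marks 50% less growth. TGI: total growth inhibition.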

How the values were obtained:
Test in all cases: growth of human tumour cells (NCI), 48 h
KM12 colon = system: KM12 colon
SR leukemia = system: SR leukemia
OVCAR-4 ovarian = system: OVCAR-4 ovarian
A549 NSCLC = system: A549 NSCLC
NCI-H226 lung = system: NCI-H226 lung
SK-OV-3 ovarian = system: SK-OV-3 ovarian
IGROV1 ovarian = system: IGROV1 ovarian

Row | Structure (SMILES) | TGI (KM12 colon) | TGI (SR leukemia) | TGI (OVCAR-4 ovarian) | TGI (A549 NSCLC) | TGI (NCI-H226 lung) | TGI (SK-OV-3 ovarian) | TGI (IGROV1 ovarian) | GI50 (KM12 colon) | GI50 (SR leukemia) | GI50 (OVCAR-4 ovarian) | GI50 (A549 NSCLC) | GI50 (NCI-H226 lung) | GI50 (SK-OV-3 ovarian) | GI50 (IGROV1 ovarian)
1 | CC(=O)CC(=O)CCCC(=O)Nc1ccc(Cl)cc1Cl | > 100 µM | > 100 µM | > 100 µM | > 100 µM | > 100 µM | > 100 µM | > 100 µM | – | – | – | – | – | – | –
2 | O=C1C2c3[nH]c4ccccc4c3C3CCSCC3C2C(=O)N1c1ccccc1 (stereo not drawn) | > 100 µM | – | > 100 µM | > 100 µM | > 100 µM | > 100 µM | > 100 µM | – | – | – | – | – | – | –
3 | CC1=CCP(C(F)(F)F)P(C(F)(F)F)C1 (stereo not drawn) | > 100 µM | > 100 µM | > 100 µM | > 100 µM | > 100 µM | > 100 µM | > 100 µM | – | – | – | – | – | – | –
4 | O=C1C(c2ccc(Cl)cc2)=[N+]([O-])c2ccccc21 | 29.7 µM | > 100 µM | – | 37.7 µM | 47 µM | > 100 µM | 33.9 µM | – | – | – | – | – | – | –
5 | Cc1ccc(C2=[N+]([O-])c3ccccc3C2=O)cc1 | 50.9 µM | > 100 µM | – | > 90.7 µM | > 100 µM | > 100 µM | 43 µM | – | – | – | – | – | – | –
6 | O=NN(CCCl)C(=O)NCc1ccc[n+]([O-])c1 | > 100 µM | > 100 µM | > 100 µM | > 100 µM | > 100 µM | > 100 µM | > 100 µM | – | – | – | – | – | – | –
7 | O=C(c1ccccc1)c1ccc2cccc(O)c2n1 | > 100 µM | > 100 µM | > 100 µM | > 100 µM | > 100 µM | – | > 100 µM | – | – | – | – | – | – | –
8 | N.N.NCCCCN.O=C([O-])CC(=O)[O-].O=C([O-])CC(=O)[O-].[Pt+4].[Pt+4] | > 100 µM | > 100 µM | > 100 µM | > 100 µM | > 100 µM | > 100 µM | > 100 µM | > 100 µM | 30.4 µM | > 100 µM | > 100 µM | > 100 µM | > 100 µM | > 100 µM
9 | N#C[C@]12CC3(CC[C@H]1CC1(C2)OCCO1)OCCO3 | > 100 µM | > 100 µM | > 100 µM | > 100 µM | > 100 µM | > 100 µM | > 100 µM | – | – | – | – | – | – | –
10 | O=[N+]([O-])c1ccc(OCCNc2cccc3ccccc23)cc1 | > 100 µM | – | > 100 µM | > 100 µM | > 100 µM | > 100 µM | > 100 µM | – | – | – | – | – | – | –
11 | CC(C)(C)C(=O)Nc1ccccc1Br | > 100 µM | – | > 100 µM | > 100 µM | > 100 µM | > 100 µM | > 100 µM | – | – | – | – | – | – | –
